Results: US11180479B2 (HAPLOGEN GmbH, priority 2017, dated 2021)

Tests used:
PLA2G16 = biological target: T1, PLA2G16 (Homo sapiens, UniProt P53816); experiment: Enzyme activity assay for PLA2G16 (Red/Green BODIPY PC-A2 fluorescence); assay type: biochemical; settings: His-tagged PLA2G16, 4 min pre-incubation, compound 2 nM to 50 μM; first symbol in parentheses
T1 construct: Hexa-His (N); made in house; host or cells: E. coli BL21(DE3)
T1 sequence (P53816 1-162): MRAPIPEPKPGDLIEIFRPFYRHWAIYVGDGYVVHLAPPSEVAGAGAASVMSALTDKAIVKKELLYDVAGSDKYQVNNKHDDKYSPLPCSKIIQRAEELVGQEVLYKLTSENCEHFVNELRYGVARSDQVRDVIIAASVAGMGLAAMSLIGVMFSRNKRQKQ
Procedure, shortened: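 N-His human PLA2G16 was expressed in E. coli and Ni-NTA purified. Enzyme in 5 mM glutathione was preincubated 4 min with compound (2 nM–50 μM final), then Red/Green BODIPY PC-A2 in DOPC/DOPG/cholesterol vesicles was added (50 mM Tris pH 8.5, 100 mM NaCl). Fluorescence increase (ex 480/em 530 nm) over 10 min gave activity; IC50 came from nonlinear regression.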

[1] = system: picornaviruses (CVB1, HRV-A2, HRV-A23, EV-68); experiment: Anti-picornavirus cytopathic effect (CPE) reduction assay on HeLa H1 cells; assay type: cell-based; settings: 48 h, category from averaging EC50 values of four picornaviruses (CVB1, HRV-A2, HRV-A23, EV68), second symbol in parentheses
Procedure, shortened: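 HeLa H1 cells pre-treated 2 h with serial compound dilutions in 2% FBS DMEM, then infected at an MOI giving full CPE in 2 days; after 48 h, viability by CellTiterBlue fluorescence (560/590 nm) normalised to infected and uninfected vehicle controls; EC50 by non-linear regression, averaged over the four viruses.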

Row | Compound | IC50 (PLA2G16) [nM] | EC50 [1] [nM]
1 | O=C(NC1CC1)C(=O)[C@H]1CNC(=O)[C@@H]1Cc1ccccc1 (racemic) [FP-2, Rac-2-[(3R,4R)-4-benzyl-5-oxopyrrolidin-3-yl]-N-cyclopropyl-2-oxoacetamide] | < 1000 | < 1000
2 | O=C(NCC(F)F)C(=O)[C@@H]1CNC(=O)[C@H]1Cc1ccccc1 (single isomer, unassigned) [FP-84] | 1000 to 10000 | > 10000
3 | O=C(NCC(F)F)C(=O)[C@H]1CNC(=O)[C@@H]1Cc1ccccc1 (racemic) [FP-4, Rac-2-[(3R,4R)-4-benzyl-5-oxopyrrolidin-3-yl]-N-(2,2-difluoroethyl)-2-oxoacetamide] | < 1000 | < 1000
4 | O=C(NCC1CC1)C(=O)[C@H]1CNC(=O)[C@@H]1c1ccc(F)cc1 (racemic) [FP-28, Rac-N-(cyclopropylmethyl)-2-[(3R,4S)-4-(4-fluorophenyl)-5-oxopyrrolidin-3-yl]-2-oxoacetamide] | < 1000 | < 1000
5 | O=C(NC1CC1)C(=O)[C@H]1CN(c2ccnc(Cl)n2)C(=O)[C@@H]1Cc1ccccc1 (racemic) [FP-60, Rac-2-[(3R,4R)-4-benzyl-1-(2-chloropyrimidin-4-yl)-5-oxopyrrolidin-3-yl]-N-cyclopropyl-2-oxoacetamide] | < 1000 | 1000 to 10000
6 | O=C(NCC1CCC1)C(=O)[C@H]1CNC(=O)[C@@H]1c1ccccc1 (racemic) [FP-21, Rac-N-(cyclobutylmethyl)-2-oxo-2-[(3R,4S)-5-oxo-4-phenylpyrrolidin-3-yl]acetamide] | < 1000 | < 1000

Further lines, results first:

Row | IC50 (PLA2G16) [nM] | EC50 [1] [nM] | Compound
7 | < 1000 | 1000 to 10000 | Cc1cc(CN2C[C@H](C(=O)C(=O)NC3CC3)[C@@H](Cc3ccccc3)C2=O)on1 (racemic) [FP-46, Rac-2-[(3R,4R)-4-benzyl-1-[(3-methyl-1,2-oxazol-5-yl)methyl]-5-oxopyrrolidin-3-yl]-N-cyclopropyl-2-oxoacetamide]
8 | < 1000 | 1000 to 10000 | O=C(NCC1CC1)C(=O)[C@H]1CN(c2cncnc2)C(=O)[C@@H]1c1ccccc1 (racemic) [FP-64, Rac-N-(cyclopropylmethyl)-2-oxo-2-[(3R,4S)-5-oxo-4-phenyl-1-(pyrimidin-5-yl)pyrrolidin-3-yl]acetamide]
9 | < 1000 | < 1000 | CC(C)CNC(=O)C(=O)[C@H]1CNC(=O)[C@@H]1Cc1ccccn1 (racemic) [FP-80, Rac-N-(2-methylpropyl)-2-oxo-2-[(3R,4R)-5-oxo-4-[(pyridin-2-yl)methyl]pyrrolidin-3-yl]acetamide]
10 | < 1000 | 1000 to 10000 | Cc1noc(CN2C[C@H](C(=O)C(=O)NC3CC3)[C@@H](Cc3ccccc3)C2=O)n1 (racemic) [FP-34, Rac-2-[(3R,4R)-4-benzyl-1-[(3-methyl-1,2,4-oxadiazol-5-yl)methyl]-5-oxopyrrolidin-3-yl]-N-cyclopropyl-2-oxoacetamide]
